Measurements from paper PMC6934184, “Selective DNA-PKcs inhibition extends the therapeutic index of localized radiotherapy and chemotherapy” (The Journal of Clinical Investigation, 2019).

Target: T1, DMPK (Homo sapiens, UniProt Q09013)
T1 construct: purchased Thermo Fisher Scientific (Life Technologies) SelectScreen
Assay: SelectScreen LanthaScreen
Type: binding
Conditions: read-out: % displacement
Description: The in vitro kinase selectivity of NU5455 was determined using the SelectScreen Broad Assay Panel (Thermo Fisher Scientific) involving activity and binding assays (Supplemental Table 1). […] Class IA PI3Ks were measured using the p85α subunit.
Kinase [ATP] % Assay Kinase [ATP] % Assay Kinase [ATP] % Assay Kinase [ATP] % Assay
DNA-PK Km app 98.3 Z LATS2 n/a 4.7 L KIT D820E n/a 1.3 L GSK3B (GSK3 beta) Km app -2.5 Z
PIK3C3 (hVPS34) Km app 85.9 A PRKCZ (PKC zeta) Km app 4.7 Z GRK1 n/a 1.3 L BMPR2 n/a -2.5 L
PIK3C2B (PI3K-C2 beta) 10 28.9 A FGFR1 Km app 4.7 Z BRSK2 n/a 1.2 L CDC42 BPB (MRCKB) Km app -2.5 Z
SNF1LK2 Km app 26.6 Z MINK1 Km app 4.6 Z NUAK1 (ARK5) Km app 1.2 A AMPK (A2/B2/G2) n/a -2.6 L
HCK Km app 18.0 Z CSF1R (FMS) Km app 4.3 Z CDK9/cyclin K n/a 1.0 L PRKG1 Km app -2.7 Z
NEK2 Km app 17.8 Z CSNK1G3 (CK1 gamma 3) Km app 4.2 Z NUAK2 n/a 1.0 L KIT T670E n/a -2.8 L
ALK Km app 17.3 Z STK32C (YANK3) n/a 4.2 L CDK2/cyclin O n/a 0.9 L ERBB4 (HER4) Km app -2.8 Z
FGFR3 K650M n/a 16.5 L STK22D (TSSK1) Km app 4.2 Z CAMKK2 (CaMKK beta) n/a 0.9 L PLK4 n/a -2.8 L
SIK3 n/a 16.1 L TAOK3 (JIK) n/a 4.2 L FGFR3 Km app 0.9 Z GRK7 Km app -3.0 Z
LYN A Km app 15.2 Z RPS6KA4 (MSK2) Km app 4.2 Z ULK2 n/a 0.9 L MAPKAPK2 Km app -3.1 Z
BMPR1B (ALK6) n/a 14.5 L PTK2B (FAK2) Km app 4.2 Z KIT D816V n/a 0.9 L FGFR4 Km app -3.1 Z
INSRR (IRR) Km app 14.1 Z CLK2 Km app 4.1 Z CAMK1 (CaMK1) 10 0.8 A CASK n/a -3.1 L
PLK2 Km app 14.1 Z STK24 (MST3) Km app 4.1 Z PTK6 (Brk) Km app 0.7 Z GRK5 Km app -3.2 Z
PRKACA (PKA) Km app 14.0 Z CAMK1D (CaMKI delta) Km app 4.1 Z CAMK2B (CaMKII beta) Km app 0.7 Z EGFR (ErbB1) T790M Km app -3.3 Z
EIF2AK2 (PKR) n/a 13.3 L INSR Km app 4.1 Z ACVR1 (ALK2) n/a 0.7 L PAK4 Km app -3.3 Z
PRKX Km app 12.5 Z IRAK1 Km app 4.0 A ABL1 H396P n/a 0.6 L DAPK3 (ZIPK) Km app -3.4 Z
FGR Km app 12.1 Z SRC N1 Km app 3.9 Z MERTK (cMER) A708S n/a 0.6 L RET M918T n/a -3.5 L
CLK1 Km app 11.7 Z SRPK2 Km app 3.9 Z MAPKAPK5 (PRAK) Km app 0.6 Z PRKCQ (PKC theta) Km app -3.7 Z
MARK3 Km app 11.4 Z RPS6KA6 (RSK4) Km app 3.8 Z AKT1 (PKB alpha) Km app 0.5 Z CAMKK1 (CAMKKA) n/a -3.8 L
PDGFRB (PDGFR beta) Km app 11.0 Z GRK6 Km app 3.7 Z NTRK3 (TRKC) Km app 0.4 Z FLT3 D835Y Km app -3.9 Z
PRKCN (PKD3) Km app 10.7 Z PKN1 (PRK1) Km app 3.6 Z ZAP70 Km app 0.3 Z ROCK2 Km app -4.1 Z
STK16 (PKL12) n/a 10.5 L MAP3K8 (COT) 100 3.5 Z CSNK1A1 (CK1 alpha 1) Km app 0.3 Z CHUK (IKK alpha) Km app -4.2 A
FES (FPS) Km app 10.4 Z FLT4 (VEGFR3) Km app 3.5 Z MYLK (MLCK) n/a 0.2 L AXL Km app -4.2 Z
ABL1 Km app 10.4 Z GRK4 Km app 3.5 Z MKNK2 (MNK2) n/a 0.2 L PIM2 Km app -4.3 Z
MUSK Km app 10.3 Z FRK (PTK5) Km app 3.4 Z AMPK (A1/B1/G3) n/a 0.2 L PAK1 Km app -4.4 Z
MAPK1 (ERK2) Km app 10.1 Z FYN A n/a 3.3 L MAP3K2 (MEKK2) n/a 0.1 L BMPR1A (ALK3) n/a -4.4 L
BRAF 100 9.9 Z CDK1/cyclin A2 n/a 3.3 L CDK8/cyclin C n/a 0.1 L STK4 (MST1) Km app -4.4 Z
IGF1R Km app 9.7 Z KIT V559D T670I n/a 3.1 L MARK2 Km app 0.1 Z PRKCH (PKC eta) Km app -4.6 Z
MAPK14 (p38 alpha) Km app 9.7 Z SPHK2 10 3.1 A ICK n/a 0.0 L SGKL (SGK3) Km app -4.6 Z
LCK Km app 9.6 Z FGFR3 G697C n/a 3.1 L FGFR2 Km app 0.0 Z PI4KB (PI4K beta) Km app -4.7 A
MAPK11 (p38 beta) Km app 9.5 Z RIPK2 n/a 3.1 L AKT2 (PKB beta) Km app 0.0 Z PRKCE (PKC epsilon) Km app -4.9 Z
SRC Km app 9.5 Z PAK6 Km app 3.0 Z EPHB2 Km app -0.1 Z PHKG1 Km app -5.0 Z
CHEK1 (CHK1) Km app 9.3 Z LYN B Km app 3.0 Z TGFBR2 n/a -0.1 L PDGFRA D842V Km app -5.0 Z
CAMK2D (CaMKII delta) Km app 9.3 Z DAPK2 n/a 2.9 L TEK (Tie2) Km app -0.1 Z PRKG2 (PKG2) Km app -5.1 Z
PLK1 Km app 9.2 Z EPHA4 Km app 2.9 Z AURKA (Aurora A) Km app -0.1 Z TYRO3 (RSE) Km app -5.1 Z
RET Y791F Km app 9.2 Z PIK3CG (p110 gamma) Km app 2.9 A KIT D816H n/a -0.2 L TAOK2 (TAO1) Km app -5.1 Z
FLT3 Km app 9.1 Z HIPK1 (Myak) Km app 2.8 Z KIT N822K n/a -0.2 L EPHB4 Km app -5.3 Z
MAPK10 (JNK3) 100 9.0 Z ADRBK2 (GRK3) Km app 2.8 Z PRKACG (PRKAC gamma) n/a -0.2 L AURKC (Aurora C) Km app -5.4 Z
CSNK2A2 (CK2 alpha 2) Km app 8.7 Z STK17B (DRAK2) n/a 2.7 L TEK (TIE2) Y1108F n/a -0.3 L JAK1 Km app -5.7 Z […]

T1 sequence (Q09013 whole entry): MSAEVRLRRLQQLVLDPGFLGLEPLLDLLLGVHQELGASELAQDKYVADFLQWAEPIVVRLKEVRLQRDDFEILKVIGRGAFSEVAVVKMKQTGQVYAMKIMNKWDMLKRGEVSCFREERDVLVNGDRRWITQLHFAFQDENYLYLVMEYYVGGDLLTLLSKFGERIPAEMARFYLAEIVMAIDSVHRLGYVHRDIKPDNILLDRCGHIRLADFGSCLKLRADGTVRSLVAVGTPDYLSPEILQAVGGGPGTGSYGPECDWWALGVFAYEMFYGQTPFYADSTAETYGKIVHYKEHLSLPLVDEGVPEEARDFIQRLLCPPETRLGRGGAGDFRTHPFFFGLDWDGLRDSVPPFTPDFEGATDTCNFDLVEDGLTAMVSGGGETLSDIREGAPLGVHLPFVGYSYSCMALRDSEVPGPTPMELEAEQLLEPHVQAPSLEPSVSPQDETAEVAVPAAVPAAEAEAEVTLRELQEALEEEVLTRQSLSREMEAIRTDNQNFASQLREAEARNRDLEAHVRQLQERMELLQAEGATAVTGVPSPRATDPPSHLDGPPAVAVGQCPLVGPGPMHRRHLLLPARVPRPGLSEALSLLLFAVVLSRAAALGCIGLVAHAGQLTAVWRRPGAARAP

Structure (SMILES): CN(C(=O)CN1CCOCC1)c1ccc2sc3c(-c4cccc5c(=O)cc(N6CC7CCC(C6)O7)oc45)cccc3c2c1 [NU5455]
- inhibition at 1 µM: -1.5%
